Experimental data: patent publication US20030224416A1, “Schizophrenia related gene” (priority 2002, published 2003)

System: Kv3.1 α-subunit mRNA
Assay: Experiment 1: in situ hybridization of Kv3.1 α-subunit mRNA in brain, chronic PCP rat model of schizophrenia with antipsychotic co-treatment
Format: in vivo

For `CN1CCN(C2=Nc3ccc(F)cc3Nc3sc4ccccc4c32)CC1.O=C(O)/C=C\C(=O)O` [Y-931, 8-fluoro-12-(4-methylpiperazin-1-yl)-6H-[l]benzothieno[2,3-b][1,5]benzo-diazepine monomaleate], the “Kv3.1 α-subunit mRNA expression” value (ACg, PCP + drug 0.3 mg/kg/day) was 15.36 ± 0.29 PSL/mm^2, the “Kv3.1 α-subunit mRNA expression” value (ACg, PCP + drug 1 mg/kg/day) was 15.10 ± 0.92 PSL/mm^2 and the “Kv3.1 α-subunit mRNA expression” value (ACg, PCP + drug 3 mg/kg/day) was 15.40 ± 0.83 PSL/mm^2. For the same compound, the “Kv3.1 α-subunit mRNA expression” value (ACg, PCP + drug 10 mg/kg/day) was 14.82 ± 0.74 PSL/mm^2, the “Kv3.1 α-subunit mRNA expression” value (AcbC, PCP + drug 0.3 mg/kg/day) was 7.65 ± 0.40 PSL/mm^2 and the “Kv3.1 α-subunit mRNA expression” value (AcbC, PCP + drug 1 mg/kg/day) was 8.40 ± 0.63 PSL/mm^2. The “Kv3.1 α-subunit mRNA expression” value (AcbC, PCP + drug 3 mg/kg/day) was 8.44 ± 0.43 PSL/mm^2, the “Kv3.1 α-subunit mRNA expression” value (AcbC, PCP + drug 10 mg/kg/day) was 8.42 ± 0.53 PSL/mm^2 and the “Kv3.1 α-subunit mRNA expression” value (AcbS, PCP + drug 0.3 mg/kg/day) was 10.24 ± 0.64 PSL/mm^2. The “Kv3.1 α-subunit mRNA expression” value (AcbS, PCP + drug 1 mg/kg/day) was 11.55 ± 0.50 PSL/mm^2, the “Kv3.1 α-subunit mRNA expression” value (AcbS, PCP + drug 3 mg/kg/day) was 11.11 ± 0.27 PSL/mm^2 and the “Kv3.1 α-subunit mRNA expression” value (AcbS, PCP + drug 10 mg/kg/day) was 11.26 ± 0.67 PSL/mm^2. The “Kv3.1 α-subunit mRNA expression” value (Au1, PCP + drug 0.3 mg/kg/day) was 17.02 ± 1.26 PSL/mm^2, the “Kv3.1 α-subunit mRNA expression” value (Au1, PCP + drug 1 mg/kg/day) was 18.48 ± 1.36 PSL/mm^2 and the “Kv3.1 α-subunit mRNA expression” value (Au1, PCP + drug 3 mg/kg/day) was 16.76 ± 0.32 PSL/mm^2. The “Kv3.1 α-subunit mRNA expression” value (Au1, PCP + drug 10 mg/kg/day) was 17.98 ± 0.68 PSL/mm^2, the “Kv3.1 α-subunit mRNA expression” value (CA1pd, PCP + drug 0.3 mg/kg/day) was 16.80 ± 1.23 PSL/mm^2 and the “Kv3.1 α-subunit mRNA expression” value (CA1pd, PCP + drug 1 mg/kg/day) was 18.34 ± 0.91 PSL/mm^2. For the same compound, the “Kv3.1 α-subunit mRNA expression” value (CA1pd, PCP + drug 3 mg/kg/day) was 16.47 ± 0.98 PSL/mm^2, the “Kv3.1 α-subunit mRNA expression” value (CA1pd, PCP + drug 10 mg/kg/day) was 19.18 ± 2.03 PSL/mm^2 and the “Kv3.1 α-subunit mRNA expression” value (CA2pd, PCP + drug 0.3 mg/kg/day) was 24.07 ± 1.74 PSL/mm^2. The “Kv3.1 α-subunit mRNA expression” value (CA2pd, PCP + drug 1 mg/kg/day) was 20.07 ± 1.71 PSL/mm^2, the “Kv3.1 α-subunit mRNA expression” value (CA2pd, PCP + drug 3 mg/kg/day) was 21.47 ± 2.23 PSL/mm^2 and the “Kv3.1 α-subunit mRNA expression” value (CA2pd, PCP + drug 10 mg/kg/day) was 22.31 ± 1.57 PSL/mm^2. The “Kv3.1 α-subunit mRNA expression” value (CA3pd, PCP + drug 0.3 mg/kg/day) was 34.10 ± 1.52 PSL/mm^2, the “Kv3.1 α-subunit mRNA expression” value (CA3pd, PCP + drug 1 mg/kg/day) was 33.99 ± 3.29 PSL/mm^2 and the “Kv3.1 α-subunit mRNA expression” value (CA3pd, PCP + drug 3 mg/kg/day) was 34.72 ± 1.24 PSL/mm^2. The “Kv3.1 α-subunit mRNA expression” value (CA3pd, PCP + drug 10 mg/kg/day) was 33.90 ± 2.52 PSL/mm^2, the “Kv3.1 α-subunit mRNA expression” value (DGgd, PCP + drug 0.3 mg/kg/day) was 38.38 ± 1.53 PSL/mm^2 and the “Kv3.1 α-subunit mRNA expression” value (DGgd, PCP + drug 1 mg/kg/day) was 39.21 ± 1.75 PSL/mm^2. For the same compound, the “Kv3.1 α-subunit mRNA expression” value (DGgd, PCP + drug 3 mg/kg/day) was 36.93 ± 2.53 PSL/mm^2, the “Kv3.1 α-subunit mRNA expression” value (DGgd, PCP + drug 10 mg/kg/day) was 36.11 ± 2.06 PSL/mm^2 and the “Kv3.1 α-subunit mRNA expression” value (DLStr, PCP + drug 0.3 mg/kg/day) was 6.55 ± 0.53 PSL/mm^2. The “Kv3.1 α-subunit mRNA expression” value (DLStr, PCP + drug 1 mg/kg/day) was 5.99 ± 0.96 PSL/mm^2, the “Kv3.1 α-subunit mRNA expression” value (DLStr, PCP + drug 3 mg/kg/day) was 7.13 ± 0.70 PSL/mm^2 and the “Kv3.1 α-subunit mRNA expression” value (DLStr, PCP + drug 10 mg/kg/day) was 7.46 ± 0.86 PSL/mm^2. For the same compound, the “Kv3.1 α-subunit mRNA expression” value (IL, PCP + drug 0.3 mg/kg/day) was 11.64 ± 0.40 PSL/mm^2, the “Kv3.1 α-subunit mRNA expression” value (IL, PCP + drug 1 mg/kg/day) was 11.33 ± 0.60 PSL/mm^2 and the “Kv3.1 α-subunit mRNA expression” value (IL, PCP + drug 3 mg/kg/day) was 12.91 ± 0.38 PSL/mm^2. For the same compound, the “Kv3.1 α-subunit mRNA expression” value (IL, PCP + drug 10 mg/kg/day) was 11.55 ± 0.45 PSL/mm^2, the “Kv3.1 α-subunit mRNA expression” value (IO, PCP + drug 0.3 mg/kg/day) was 17.52 ± 0.95 PSL/mm^2 and the “Kv3.1 α-subunit mRNA expression” value (IO, PCP + drug 1 mg/kg/day) was 15.49 ± 0.30 PSL/mm^2. For the same compound, the “Kv3.1 α-subunit mRNA expression” value (IO, PCP + drug 3 mg/kg/day) was 17.52 ± 0.36 PSL/mm^2, the “Kv3.1 α-subunit mRNA expression” value (IO, PCP + drug 10 mg/kg/day) was 15.30 ± 0.62 PSL/mm^2 and the “Kv3.1 α-subunit mRNA expression” value (M1, PCP + drug 0.3 mg/kg/day) was 15.33 ± 0.38 PSL/mm^2. The “Kv3.1 α-subunit mRNA expression” value (M1, PCP + drug 1 mg/kg/day) was 14.81 ± 0.80 PSL/mm^2, the “Kv3.1 α-subunit mRNA expression” value (M1, PCP + drug 3 mg/kg/day) was 17.01 ± 0.75 PSL/mm^2 and the “Kv3.1 α-subunit mRNA expression” value (M1, PCP + drug 10 mg/kg/day) was 16.51 ± 0.67 PSL/mm^2. The “Kv3.1 α-subunit mRNA expression” value (M2, PCP + drug 0.3 mg/kg/day) was 13.23 ± 0.29 PSL/mm^2.
